Read-outs that look alike come from different tables or passages of the source.
Tests used:
menin protein = menin protein (Homo sapiens (Human), UniProt O00255); test: biochemical; format: binding; details: FP competitive binding; menin protein 4 nM, FAM-MM2 probe 2 nM; read-out: Menin Binding Affinity IC50
In short: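 Test compounds displaced FAM-MM2 (2 nM) from 4 nM menin after 30 min equilibration at room temperature in PBS buffer containing bovine γ-globulin, 4% DMSO and Triton X-100. Binding was followed by fluorescence polarization. Competition curves were fitted by nonlinear regression to give IC50 and Ki.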

[1] = Cell growth inhibition, CellTiter-Glo Luminescent Cell Viability Assay; format: cell-based
In short: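 Cells seeded at 2,000/well with serially diluted compound and cultured 4 days at 37 °C, 5% CO2. Viability read by CellTiter-Glo luminescence; IC50 derived from dose-response.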

[2] = MOLM-13, 96 h, MOLM13 cells, 4 days, CellTiter-Glo, read-out: Cell Growth Inhibition IC50 (μM) MOLM13
[3] = MV4-11, 96 h, MV4, 11 cells, 4 days, CellTiter-Glo, read-out: Cell Growth Inhibition IC50 (μM) MV4, 11
[4] = MOLM-13, 96 h, read-out: Cell Growth Inhibition IC50 (μM) MOLM13, MOLM13 cells, 4 days, CellTiter-Glo
[5] = MV4-11, 96 h, read-out: Cell Growth Inhibition IC50 (μM) MV4, 11, MV4, 11 cells, 4 days, CellTiter-Glo

Sequence of menin protein (O00255 whole entry): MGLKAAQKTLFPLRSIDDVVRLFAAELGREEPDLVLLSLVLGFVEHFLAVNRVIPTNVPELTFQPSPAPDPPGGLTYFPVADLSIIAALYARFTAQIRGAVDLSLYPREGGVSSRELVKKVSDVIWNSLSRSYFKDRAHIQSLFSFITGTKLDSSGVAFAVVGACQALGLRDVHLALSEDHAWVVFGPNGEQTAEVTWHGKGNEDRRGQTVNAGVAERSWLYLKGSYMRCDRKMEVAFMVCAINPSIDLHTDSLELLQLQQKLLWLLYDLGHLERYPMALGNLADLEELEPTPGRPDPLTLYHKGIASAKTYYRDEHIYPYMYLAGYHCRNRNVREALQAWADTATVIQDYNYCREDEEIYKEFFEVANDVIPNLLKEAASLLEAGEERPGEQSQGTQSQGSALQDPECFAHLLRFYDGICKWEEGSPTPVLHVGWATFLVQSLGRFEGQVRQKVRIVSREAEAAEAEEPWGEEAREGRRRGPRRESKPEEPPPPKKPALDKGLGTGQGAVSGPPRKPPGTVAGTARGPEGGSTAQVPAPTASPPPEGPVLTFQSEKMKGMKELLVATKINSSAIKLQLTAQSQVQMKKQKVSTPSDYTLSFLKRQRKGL

Row | SMILES | IC50 (menin protein) | IC50 [1, 2] | IC50 [1, 3] | IC50 [1, 4] | IC50 [1, 5] | further results
1 | CCN1Cc2ccccc2C(C2CCCC2)(C2CCN(CC3CN(c4ccc(S(=O)(=O)C5CC5)cc4Cl)C3)CC2)C1 (stereo not drawn) [compound 144, 4-(1-((1-(2-chloro-4-(cyclopropylsulfonyl)phenyl)azetidin-3-yl)methyl)piperidin-4-yl)-4-cyclopentyl-2-ethyl-1,2,3,4-tetrahydroisoquinoline] | 23 nM | 4 ± 0.7 µM | 1.6 ± 1.1 µM | – | – | –
2 | N#CC(c1ccccc1)(C1CCN(CC2CN(c3ccc(S(=O)(=O)c4ccccc4)cc3)C2)CC1)[C@H]1CCC[C@@H]1OC(N)=O (mixture of isomers) [compound 223, rac-(1S,2R)-2-(cyano(phenyl)(1-((1-(4-(phenylsulfonyl)phenyl)azetidin-3-yl)methyl)piperidin-4-yl)methyl)cyclopentyl carbamate] | 14 nM | – | – | 0.49 µM | 0.29 µM | –
3 | CCN1Cc2ccccc2C(C2CCCC2)(C2CCN(CC3CN(c4ccc(S(=O)(=O)c5ccnc6cnccc56)cc4)C3)CC2)C1 (stereo not drawn) [compound 158, 4-((4-(3-((4-(4-cyclopentyl-2-ethyl-1,2,3,4-tetrahydroisoquinolin-4-yl)piperidin-1-yl)methyl)azetidin-1-yl)phenyl)sulfonyl)-1,7-naphthyridine] | 8 nM | 1.56 µM | 0.8 µM | – | – | –
4 | CCN1Cc2ccccc2C(C2CCCC2)(C2CCN(CC3CN(c4ccc(S(=O)(=O)C5CC5)cc4)C3)C(C)C2)C1 (stereo not drawn) [compound 95, 4-cyclopentyl-4-(1-((1-(4-(cyclopropylsulfonyl)phenyl)azetidin-3-yl)methyl)-2-methylpiperidin-4-yl)-2-ethyl-1,2,3,4-tetrahydroisoquinoline] | 24 nM | – | – | – | – | IC50 ([1]; MOLM13 cells, 4 days, CellTiter-Glo, read-out: Cell Growth Inhibition IC50 (μM) MOLM13): 1.9 µM; IC50 ([1]; MV4, 11 cells, 4 days, CellTiter-Glo, read-out: Cell Growth Inhibition IC50 (μM) MV4, 11): 1.8 µM
5 | CNC(=O)O[C@H]1CCC[C@@H]1C(C#N)(c1ccccc1)C1CCN(CC2CN(c3ccc(S(=O)(=O)c4ccn(C)n4)cc3)C2)CC1 (mixture of isomers) [compound 230, rac-(1S,2R)-2-(cyano(1-((1-(4-((1-methyl-1H-pyrazol-3-yl)sulfonyl)phenyl)azetidin-3-yl)methyl)piperidin-4-yl)(phenyl)methyl) cyclopentyl methylcarbamate] | 7 nM | – | – | 0.25 µM | 0.092 µM | –
6 | CNC(=O)N[C@H]1CCC[C@@H]1C1(C2CCN(CC3CN(c4ccc(S(=O)(=O)c5cnn(C)c5)cc4)C3)CC2)CN(C)Cc2ccccc21 (mixture of isomers) [compound 284, rac-1-methyl-3-((1S,2R)-2-(2-methyl-4-(1-((1-(4-((1-methyl-1H-pyrazol-4-yl)sulfonyl)phenyl)azetidin-3-yl)methyl)piperidin-4-yl)-1,2,3,4-tetrahydroisoquinolin-4-yl)cyclopentyl)urea] | 11 nM | – | – | > 10 µM | 2.59 µM | –
7 | CCN1Cc2ccccc2C(C2CCCC2)(C2CCN(CC3CN(c4ccc(S(=O)(=O)CC5CC5)cc4)C3)CC2)C1 (stereo not drawn) [compound 143, 4-cyclopentyl-4-(1-((1-(4-((cyclopropylmethyl)sulfonyl)phenyl)azetidin-3-yl)methyl)piperidin-4-yl)-2-ethyl-1,2,3,4-tetrahydroisoquinoline] | 28 nM | 3.4 ± 0.5 µM | 1.2 ± 1 µM | – | – | –
8 | CCN1Cc2ccccc2C(C2CCCC2)(C2CCN(CC3CN(c4ccc(S(=O)(=O)c5ccccc5)cc4)C3)CC2)C1 (stereo not drawn) [compound 147, 4-cyclopentyl-2-ethyl-4-(1-((1-(4-(phenylsulfonyl)phenyl)azetidin-3-yl)methyl)piperidin-4-yl)-1,2,3,4-tetrahydroisoquinoline] | 9 nM | 1.6 ± 0.8 µM | 0.956 ± 0.727 µM | – | – | –
9 | COC(=O)N[C@H]1CCC[C@@H]1C(C#N)(c1ccccc1)C1CCN(CC2CN(c3ccc(S(=O)(=O)c4ccc(C(=O)O)cc4)cc3)C2)CC1 (mixture of isomers) [compound 351, rac-4-((4-(3-((4-(cyano((1R,2S)-2-((methoxycarbonyl)amino)cyclopentyl)(phenyl)methyl)piperidin-1-yl)methyl)azetidin-1-yl)phenyl)sulfonyl)benzoic acid] | 15 nM | – | – | 16.1 µM | 3.02 µM | –
10 | O=S(=O)(c1ccc(N2CC(CN3CCC(C4(C5CCCC5)NCCc5ccccc54)CC3)C2)cc1)C1CCCC1 (stereo not drawn) [compound 146, 1-cyclopentyl-1-(1-((1-(4-(cyclopentylsulfonyl)phenyl)azetidin-3-yl)methyl)piperidin-4-yl)-1,2,3,4-tetrahydroisoquinoline] | 13 nM | 1.9 ± 1.2 µM | 0.785 ± 0.247 µM | – | – | –
11 | CNC(=O)O[C@H]1CCC[C@@H]1C(Cn1ccnc1)(c1ccccc1)C1CCN(CC2CN(c3ccc(S(=O)(=O)c4ccc(C(=O)O)cc4)cc3)C2)CC1 (mixture of isomers) [compound 362, rac-4-((4-(3-((4-(2-(1H-imidazol-1-yl)-1-((1R,2S)-2-((methylcarbamoyl)oxy)cyclopentyl)-1-phenylethyl)piperidin-1-yl)methyl)azetidin-1-yl)phenyl)sulfonyl)benzoic acid] | 8 nM | – | – | – | – | IC50 ([1]; read-out: Cell Growth Inhibition IC50 (μM) MOLM13, MOLM13 cells, 4 days, CellTiter-Glo): > 10 µM; IC50 ([1]; read-out: Cell Growth Inhibition IC50 (μM) MV4, 11, MV4, 11 cells, 4 days, CellTiter-Glo): 4.79 µM
12 | CC(=O)O[C@H]1CCC[C@@H]1C1(C2CCN(CC3CN(c4ccc(S(=O)(=O)c5ccnc(C)c5)cc4)C3)CC2)CN(C)Cc2ccccc21 (mixture of isomers) [compound 201, rac-(1S,2R)-2-(2-methyl-4-(1-((1-(4-((2-methylpyridin-4-yl)sulfonyl)phenyl)azetidin-3-yl)methyl)piperidin-4-yl)-1,2,3,4-tetrahydroisoquinolin-4-yl)cyclopentyl acetate] | 5 nM | – | – | 0.399 ± 0.153 µM | 0.09 ± 0.051 µM | –
13 | CC(=O)O[C@H]1CCC[C@@H]1C1(C2CCN(CC3CN(c4ccc(S(=O)(=O)C5CC5)cc4)C3)CC2)CN(C)Cc2ccccc21 (mixture of isomers) [compound 203, rac-(1S,2R)-2-(4-(1-((1-(4-(cyclopropylsulfonyl)phenyl)azetidin-3-yl)methyl)piperidin-4-yl)-2-methyl-1,2,3,4-tetrahydroisoquinolin-4-yl)cyclopentyl acetate] | 9 nM | – | – | 0.687 µM | 0.234 µM | –
14 | CCN1Cc2ccccc2C(C2CCCC2)(C2CCN(CC3CN(c4ccc(S(=O)(=O)c5ccnc(C(F)(F)F)c5)cc4)C3)CC2)C1 (stereo not drawn) [compound 157, 4-cyclopentyl-2-ethyl-4-(1-((1-(4-((2-(trifluoromethyl)pyridin-4-yl)sulfonyl)phenyl)azetidin-3-yl)methyl)piperidin-4-yl)-1,2,3,4-tetrahydroisoquinoline] | 16 nM | 4.4 µM | 1.8 µM | – | – | –
15 | CCC(=O)O[C@H]1CCC[C@@H]1C(C#N)(c1ccccc1)C1CCN(CC2CN(c3ccc(S(=O)(=O)c4ccncc4)cc3)C2)CC1 (mixture of isomers) [compound 195, rac-(1S,2R)-2-(cyano(phenyl)(1-((1-(4-(pyridin-4-ylsulfonyl)phenyl)azetidin-3-yl)methyl)piperidin-4-yl)methyl)cyclopentyl propionate] | 10 nM | – | – | 1.5 µM | 0.991 µM | –
16 | O=S(=O)(c1ccccc1)c1ccc(N2CC(CN3CCC(C(CN4CCCC4)(c4ccccc4)[C@H]4C=CCC4)CC3)C2)cc1 (stereo partly drawn) [compound 356, 4-(1-((R)-cyclopent-2-en-1-yl)-1-phenyl-2-(pyrrolidin-1-yl)ethyl)-1-((1-(4-(phenylsulfonyl)phenyl)azetidin-3-yl)methyl)piperidine] | 22 nM | 0.69 µM | 0.71 µM | – | – | –
